US12403132B2, “Methods of treating bone marrow failure syndromes and compositions for use in the same” (The Board of Trustees of the Leland Stanford Junior …, priority 2020, dated 2025)
pEC50: −log10 of the molar value. Like-named read-outs stand apart in the source and are kept apart here.

Assays:
[1] = Solubility; type: physicochemical; conditions: data not shown
[2] = molecular target: T1, NLK (Homo sapiens, UniProt Q9UBE8); experiment: Kinase Profiling of SD208; type: biochemical; conditions: 10 μM; data not shown
T1 sequence (Q9UBE8 1-527): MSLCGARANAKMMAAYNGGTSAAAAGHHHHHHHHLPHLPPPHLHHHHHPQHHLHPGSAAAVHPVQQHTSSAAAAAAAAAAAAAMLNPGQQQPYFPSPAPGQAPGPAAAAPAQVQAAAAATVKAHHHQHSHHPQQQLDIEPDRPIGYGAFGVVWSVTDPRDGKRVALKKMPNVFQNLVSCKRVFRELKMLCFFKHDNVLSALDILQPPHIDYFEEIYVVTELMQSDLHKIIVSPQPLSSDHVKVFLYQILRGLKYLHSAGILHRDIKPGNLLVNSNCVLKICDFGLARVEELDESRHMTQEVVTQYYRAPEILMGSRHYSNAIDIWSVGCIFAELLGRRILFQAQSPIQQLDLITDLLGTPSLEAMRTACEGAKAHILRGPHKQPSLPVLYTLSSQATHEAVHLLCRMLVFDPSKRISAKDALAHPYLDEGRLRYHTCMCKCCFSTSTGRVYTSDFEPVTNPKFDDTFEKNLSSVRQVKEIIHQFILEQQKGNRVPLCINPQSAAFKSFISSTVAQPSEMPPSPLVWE

[3] = test system: c-Kit+ erythroid progenitors in murine RPS19-insufficiency; experiment: c-Kit+ erythroid expansion screen, tet-shRPS19 murine fetal liver cells (Cell titer-Glo); type: cell-based, mouse; conditions: for rescue of c-Kit+ erythroid expansion: 10 μM, murine RPS19-insufficient model; for pEC50: read-out: EC50 of rescue of erythroid growth in murine RPS19-insufficiency
[4] = test system: miR-208; experiment: miRNA expression in vehicle-, metformin- and ginsenoside Rb1-treated HSPCs; type: cell-based, human
Excerpt: The abundance of let-7, miR-30 miR-144 and miR-132 were expressed 40.1-, 2.2-, 5.0- and 18.3-fold higher than miR-208, whereas miR-208 was expressed 1.6- and 2.1-fold higher than miR-199 and miR-499. MiR-26a (induced by metformin) expression was 1.4-fold higher than miR-208.

[5] = test system: NLK; experiment: NLK expression in differentiating human progenitors (qRT-PCR, Western blot); type: cell-based; set-up: reduction of endogenous NLK expression: concentration or dose not given beside the values
[6] = test system: NLK 3′UTR; experiment: Luciferase fused to NLK 3′UTR in differentiating HSPCs; type: cell-based, human
Description: We generated a series of truncated NLK 3′UTRs fused to the luciferase gene and transduced them into control and RPS19-insufficient differentiating HSPCs. Cells were treated with increasing concentrations of ginsenoside Rb1 or metformin and luciferase activity assessed.

[7] = test system: zebrafish (Danio rerio) embryos; experiment: Zebrafish rps19 morpholino model, o-dianisidine hemoglobin staining; type: in vivo
Excerpt: FIG. 11. […] Statistics: two-tailed Student's t test, significant *P<0.05

[8] = test system: zebrafish NLK 3′UTR; experiment: Luciferase fused to zebrafish NLK 3′UTR in K562 cells; type: cell-based; conditions: transient transfection in K562, metformin 72 hrs
[9] = test system: SATB1 3′UTR; experiment: Luciferase alone or fused to SATB1 3′UTR in K562 cells; type: cell-based, human; conditions: K562, 0.5-50 mM, 72 hrs
Description: FIG. 12. NLK 3′UTR facilitates metformin-mediated NLK suppression. (Panel A) K562 cells stabling expressing luciferase alone (top portion), luciferase expressed behind a minimal promoter and the NLK proximal promoter (2nd portion), luciferase immediately upstream of the human NLK 3′UTR (3rd portion) or luciferase with the SATB1 3′UTR (bottom portion) were grown in the presence of 0, 0.5, 5.0 or 50.0 mM of metformin for 72 hrs. Cell were pelleted and either processed for luciferase assay (left portion) or western blot analysis of endogenous NLK (upper right portion) or GAPDH (lower right portion). (Panel B) Luciferase immediately upstream of the human (upper), murine (middle) and zebrafish (lower) NLK 3′UTR were transiently transfected into human K562 (left) and cultured with indicated concentrations of metformin for 72 hrs. Lysates were assessed for luciferase activity and endogenous NLK and GAPDH protein expression by Western blotting. […] Statistics: two-tailed Student's t test, significant *P<0.05
In parallel with measuring luciferase activity, the response of endogenous NLK protein expression was monitored by Western blot analysis with a high degree of correlation.

[10] = ginsenoside Rb1, metformin, alone and combined

In the case of `Fc1ccc(Cl)cc1-c1nc(Nc2ccncc2)c2nccnc2n1` [SD208], the solubility [1] was “poor solubility”, the “NLK kinase activity inhibited” value [2] was 96.8% and the “rescue of c-Kit+ erythroid expansion” value [3] was “significantly rescued”. For the same compound, the pEC50 [3] was 6.15.
With `CC(C)=CCC[C@](C)(O[C@@H]1O[C@H](CO[C@@H]2O[C@H](CO)[C@@H](O)[C@H](O)[C@H]2O)[C@@H](O)[C@H](O)[C@H]1O)[C@H]1CC[C@]2(C)[C@@H]1[C@H](O)C[C@@H]1[C@@]3(C)CC[C@H](O[C@@H]4O[C@H](CO)[C@@H](O)[C@H](O)[C@H]4O[C@@H]4O[C@H](CO)[C@@H](O)[C@H](O)[C@H]4O)C(C)(C)[C@@H]3CC[C@]12C` [ginsenoside Rb1] the “induction of miR-208” value ([4]; ginsenoside Rb1-treated HSPCs) was 1.9 fold, the “reduction of NLK protein” value ([5]; differentiating HSPCs, 5 mM) was 31.5% and the “suppression of NLK expression” value [5, 10] was 34.6%. The “reduction of endogenous NLK expression” value ([5]; ginsenoside Rb1-treated differentiating HSPCs (miRNA sponge experiment)) was 44.8%, the “suppression of NLK expression” value ([5]; miRNA species transduced into differentiating HSPCs, ginsenoside Rb1 for comparison) was 34.6% and the “reduction of luciferase activity (NLK 3′UTR)” value ([6]; 50 mM ginsenoside Rb1) was 35.9%.
With `CN(C)C(=N)N=C(N)N` [metformin] the heart conditions ([7]; 20 mM metformin) was “persisted”, the “O'dianisidine (hemoglobin) staining” value ([7]; 20 mM metformin from 4 to 5 hpf, day 3) was “dramatically restored” and the “induction of miR-499, miR-208, miR-132” value ([4]; metformin-treated HSPCs) was “None of these miRNAs were induced”. The “suppression of NLK expression” value [5, 10] was 59.4%, the “decrease of luciferase activity, zebrafish 3′UTR” value [8] was 43.6% and the “reduction of luciferase activity (NLK 3′UTR)” value ([6]; metformin) was 67.5%. The “metformin sensitivity of luciferase alone or fused with SATB1 3′UTR” value [9] was “did not result in metformin sensitivity”.
With `NC(=O)c1ccc(-c2nc(-c3ccc4c(c3)OCO4)c(-c3ccccn3)[nH]2)cc1` [SB431542] the “rescue of c-Kit+ erythroid expansion” value [3] was “significantly rescued” and the pEC50 ([3]; Mus musculus) was 5.30.
